Data reported in patent US20070270413A1, “Mirtazapine for the treatment of neuropathic pain” (N.V. Organon, priority 2006, published 2007).

Columns and labels:
[1] = system: mechanical allodynia induced by ligation of the L5 spinal nerve; assay: Chung neuropathic model: mechanical allodynia, paw withdrawal threshold to von Frey filaments; assay type: in vivo, rat
Text: The Chung Neuropathic Model is an animal model of neuropathic pain. Animals with tight ligation of the L5 spinal nerve develop hyperalgesia and allodynia that can be measured using standard behavioural paradigms. Chung surgery: animals were anaesthetized with isoflurane administered in oxygen. Under sterile conditions, a longitudinal incision (about 5 mm lateral from the midline) was made at the lower lumbar-sacral level, exposing the paraspinal muscles on the left. The paraspinal muscles were then isolated and removed from the L4 spinous process to the sacrum using small blunt scissors. This opened up the space ventrolateral to the articular processes, dorsal to the L6 transverse process, and medial to the ileum. Small roungers were used to remove the L6 transverse process as completely as possible. The L5 spinal nerve was then isolated and tightly ligated. Upon completion of the operation, haemostasis was confirmed and the wound closed in layers using silk sutures and metal clips. Anaesthesia was then discontinued. Animals were kept in a cage with warm bedding until they had completely recovered from anaesthesia. The rats' withdrawal threshold to a mechanical stimulus (calibrated von Frey filaments) was measured (baseline reading). Rats were placed on an elevated (˜40 cm) mesh floor in Perspex boxes and filaments of increasing force (2.6-167 mN) were applied to the plantar surface of the paw using an up and down method (Chaplan et al., 1994). The paw was touched with one of a series of 8 von Frey hairs with logarithmically incremental stiffness. The von Frey hair was presented perpendicular to the plantar surface with sufficient force to cause buckling against the paw, and held for approximately 1-3 seconds. A positive response was noted if the paw was sharply withdrawn. A cut-off of 15 g was selected as the upper limit for testing, since stiffer hairs tend to raise the entire limb rather than buckling, substantially changing the nature of the stimulus. […] Data were expressed as mean±s.e.m. and compared between groups using the Kruskal-Wallis one-way analysis of variance, a non-parametric statistical test. Each of the treatment groups were then compared against the vehicle group, using the non-parametric Dunn's test. The time of maximum effect (Tmax) was calculated.

[2] = system: mechanical allodynia induced by ligation of the L5 spinal nerve; assay: as above; assay type: in vivo, rat; details: 10 and 30 μmol/kg, 40 min after administration, P<0.05 vs vehicle (Mann Whitney)
[3] = Side effects observed after s.c. dosing in the Chung neuropathic model
Method: Following baseline measurements each animal was anaesthetised and the L5 spinal nerve tightly ligated. The animals were allowed to recover from the surgery for a period of at least five days. On the day of drug administration, the paw withdrawal thresholds were re-measured (0 min). […] Readings were then made at regular intervals after compound injection.

## CN1CCN2c3ncccc3Cc3ccccc3C2C1 (racemic) [Racemic mirtazapine, mirtazapine]
[1]; 10 and 30 μmol/kg, 40 min after administration, not dose-dependent
  Effect on withdrawal threshold: small but significant effect
[2]
  Withdrawal threshold: up to 4 g

## CN1CCN2c3ncccc3Cc3ccccc3[C@H]2C1 [S(+)-mirtazapine]
[1]; 0.3 μmol/kg s.c.
  Tmax (time of maximum effect): 1 h
[1]; 3 μmol/kg s.c.
  Tmax (time of maximum effect): 1 h
[1]; 30 μmol/kg s.c., Table 1
  Tmax (time of maximum effect): 1 h
[1]; 60 μmol/kg s.c.
  Tmax (time of maximum effect): 1 h
[1]; 120 μmol/kg s.c.
  Reversal of mechanical allodynia: 53 % of the baseline
  Tmax (time of maximum effect): 1 h
[1]; 60 and 120 μmol/kg s.c.
  Anti-allodynic activity: Anti-allodynic activity
[1]; subcutaneous administration, maleate salt
  Effect on mechanical allodynia: significantly attenuated
[3]; 120 μmol/kg s.c.
  Injection site finding: necrosis at site of injection
  Reaction on injection (s.c.): vocalisation/struggle on injection
[3]; 60 and 120 μmol/kg group
  Behaviour when returned to holding cages after testing: hyperactive/excitable behaviour

## R-mirtazapine [reference compound]
[1]; 10 μmol/kg s.c., Table 2
  Tmax (time of maximum effect): 0.5 h
[1]; 30 μmol/kg s.c., Table 2
  Tmax (time of maximum effect): 0.5 h
[1]; 100 μmol/kg s.c., Table 2
  Tmax (time of maximum effect): 0.5 h
[1]; 10-100 μmol/kg s.c., free base
  Effect on mechanical allodynia: no effect
[1]; doses up to 100 μmol/kg s.c.
  Anti-allodynic activity: no effect
